Assay results: US12570709B2, “Self-assembling peptide amphiphiles displaying a transforming growth factor beta 1 (TGF-ß1) mimetic epitope” (Northwestern University, priority 2021, dated 2026)
Bridge positions count the residues as written; N and C are the ends. Ends that are not written are not given here. I, II: the chains in the order shown. * marks the point of attachment. Palmitoyl = CCCCCCCCCCCCCCCC(=O)*

Key:
[1] = system: Smad2 phosphorylation (intracellular TGF-β1 signaling) in human chondrocytes; assay: Western blot of phosphorylated Smad2 after 4 h treatment; assay type: cell-based; settings: for p-Smad2 activation: 50 μM, 4 h
Protocol: For western blot of 4 h PA treatments, cells were seeded in 6-well plates at a density of 600,000 cells/well and cultured for 24 h. […] Cells were then treated with PA in solution for 4 h in vitro. For western blot of 3-day PA treatments, cells were seeded in 6-well plates at a density of 230,000 cells/well and cultured for 24 h. Cells were then treated with PA in solution for 3 days in vitro.
Protein was extracted from cells using Halt Protease and Phosphatase Inhibitor Cocktail (Thermo Scientific) and a BCA assay (Thermo Scientific) was performed to determine protein content of each sample. Cell protein was loaded into and separated using a 4-20% SDS-PAGE gel (Bio-Rad). It was then electrotransferred from the gel to a nitrocellulose membrane (Bio-Rad). The membranes were blocked with 10% milk solution (Bio-Rad) for 30 minutes followed by an overnight incubation with primary antibodies at 4° C. The following primary antibodies were used: rabbit anti-pSmad2 (1:1000, Cell Signaling), rabbit anti-Smad2 (1:1000, Cell Signaling), rabbit anti-Sox9 (1:500, Abcam), mouse anti-Aggrecan (1:500, ThermoFisher), rabbit anti-COMP/Cartilage oligomeric matrix protein (1:500, Abcam), mouse anti-Collagen II (1:500, ThermoFisher), and mouse anti-Actin (1:1000, Novus Bio). Membranes were then incubated with their corresponding secondary HRP-conjugated antibodies (1:1000, ThermoFisher). Protein signals were detected using Radiance Bioluminescent ECL substrate (Azure Biosystems). Densitometry analysis, standardized to total receptor content or actin as a control for protein loading, was performed using ImageJ software. For quantification, experimental triplicate samples were analyzed, and two different experiments were conducted.

[2] = Fluorescence anisotropy of TAMRA-labeled epitopes; assay type: physicochemical; settings: 10 mol % co-assembly
Protocol: PA co-assemblies of diluent PA, TGF-β1 mimetic PA, and fluorescent dye-conjugated TGF-β1 mimetic PA were prepared in a 90:8:2 mol % ratio. The dye-conjugated PA was synthesized as previously described with a tetramethylrhodamine (TAMRA) molecule conjugated to the N-terminal amine of the TGF-β1 mimetic epitope. The PA solutions were prepared as previously described and diluted immediately before measurement to 100 μM PA, 100 μM CaCl2), and 30 mM NaCl. Fluorescence measurements were performed on an ISS PC1 photon counting steady-state fluorescence spectrometer equipped with a 300 W xenon arc lamp with power set to 18 A. Excitation slit widths of 1 mm (8 nm bandwidth) and emission slit widths of 0.5 mm (4 nm bandwidth) were used. Fluorescence anisotropy measurements were performed with λex=554 nm and λem=580 nm according to the equation:
[formula] Where F∥ is the intensity parallel to the excitation plane, F⊥ is the intensity perpendicular to the excitation plane, and g is the g-factor, which accounts for differences in emissions between the perpendicular and parallel gratings.^1 Measurements were taken in triplicate and averaged for final data analysis. Transverse-Relaxation Nuclear Magnetic Resonance Spectroscopy

[3] = system: collagen II, aggrecan and F-actin in human chondrocytes; assay: Immunocytochemistry staining and fluorescence intensity analysis after three days; assay type: cell-based; settings: three days in vitro
Protocol: For immunocytochemistry (ICC), 12-mm glass coverslips were coated with sterile filtered 0.01 mg/mL poly-D-lysine (Sigma-Aldrich) solution and incubated overnight at 37° C. The coverslips were washed three times with sterile water and air-dried for at least 30 minutes. Cells were seeded on coverslips at a density of approximately 3,000 cells/coverslip and cultured for 24 h. Cells were then treated with PA in solution for 3 days in vitro. Following treatment, cells were fixed in 4% paraformaldehyde for 15 minutes at room temperature.
Fixed samples were permeabilized and blocked in a solution of 0.1% (v/v) Triton X-100 and 1% normal horse serum (Invitrogen) for 2 hours at room temperature. Samples were incubated with primary antibodies overnight at 4° C. The following primary antibodies were used: rabbit anti-Sox9 (1:500, Abcam), mouse anti-Aggrecan (1:500, ThermoFisher), mouse anti-Collagen II (1:500, ThermoFisher), and mouse anti-Nuclei (1:500, Sigma-Aldrich). The next day, samples were incubated with AlexaFluor 488 secondary antibody, AlexaFluor 555 secondary antibody, Phalloidin AlexaFluor 488, and/or Phalloidin AlexaFluor 633 (1:1000, Invitrogen) for 2-3 h at room temperature. For 2D cell culture, samples were then incubated with DAPI (1:1000, Invitrogen) for 10 minutes at room temperature. If not already on a glass coverslip, samples were mounted with Immu-Mount (Thermo Scientific) and imaged on a Nikon A1R Spectral microscope. Image analysis was performed using ImageJ software.

## TGF PA-a: backbone PA-a (SEQ ID NO: 7) conjugated to cyclic TGF-β1 mimetic peptide (SEQ ID NO: 1) by a linker; co-assembled with diluent Backbone PA-a (chain Palmitoyl-AAEEK-OH; peptide CESPLKRQC; disulfide II:1-II:9; not fully specified (some residues); also: co-assembled with diluent backbone PA-a)
[1]; 10 mol % co-assemblies
  p-Smad2 activation: upregulated p-Smad2 significantly more than all other PA treatments
[1]; 10 mol % co-assembly
  p-Smad2 activation: strong p-Smad2 activation
[1]; with vs without 1D11
  activation of p-Smad2 with addition of pan-TGF-β-neutralizing antibody 1D11: effectively neutralized
  significance of the neutralizing effect of 1D11 on p-Smad2 activation: statistically significant
[2]
  fluorescence anisotropy (epitope rotational diffusion), compared to TGF PA-b: significantly lower anisotropy values
[3]; 10 μM, ICC
  aggrecan synthesis: significantly increased aggrecan synthesis at similar levels
  collagen II production compared with native rhTGF-β1: significantly more collagen II production than native rhTGF-β1
[3]
  chondrocyte phenotype (F-actin staining): maintained healthy chondrocyte phenotypes and prevented hypertrophy
